Paper PMC4981864, “Novel pH-Sensitive Cyclic Peptides” (Scientific Reports, 2016)
Ends that are not written are not given here. Peptide text beside a SMILES is read from it.

Key:
[1] = type: physicochemical; settings: pH 8
Method: (§1) Large unilamellar vesicles (LUVs) were prepared by extrusion. POPC, 1-palmitoyl-2-oleoyl-sn-glycero-3-phosphocholine (Avanti Polar Lipids), or a mixture of POPC with 0.5% of 18:1 NBD-PE, 1,2-dioleoyl-sn-glycero-3-phosphoethanolamine-N-7-nitro-2-1,3-benzoxadiazol-4-yl ammonium salt (Avanti Polar Lipids) were dissolved in chloroform, desolvated on a rotary evaporator, and dried under high vacuum for several hours. The phospholipid film was then rehydrated in 10 mM phosphate buffer pH 8.0, vortexed until the lipid bilayer was completely dissolved, and repeatedly (15–21 times) extruded through the membranes with 50 nm pore sizes to obtain LUVs.
pH-dependent partitioning of the peptides into a lipid bilayer of the membrane was investigated by the shift of the position of the fluorescence spectral maximum for the peptides in the presence POPC liposomes induced by a drop of pH from 8 to 2.5 by the addition of HCl. The peptides were incubated overnight with 50-nm POPC liposomes (final concentration of the peptides and POPC in solution was 5 μM and 1 mM, respectively), and pH decrease was achieved by the addition of aliquots of 4, 2, 1 and 0.1 M HCl. pH was measured by micro-electrode probe (Thermo Electron Corporation, Orion Ross Micro pH electrode). Fluorescence spectra were recorded at each pH value. The spectra were analyzed by the decomposition algorithms using on-line PFAST toolkit[47] (Protein Fluorescence and Structural Toolkit: http://pfast.phys.uri.edu/) to establish the position of the emission maximum. Finally, the positions of the fluorescence spectral maxima (λmax) were plotted versus pH, and the Henderson–Hasselbalch equation was used to fit the data (using Origin 8.5 software): […]
where [drawing 3] and [drawing 4] are the beginning and the end of the transition, respectively, and pKa – is the midpoint of the transition.

[2] = Steady-state tryptophan fluorescence and CD with and without POPC liposomes; type: physicochemical; settings: for maximum position of the fluorescence spectrum λmax, Pep, pH8: peptide in phosphate buffer pH 8, no liposomes; for maximum position of the fluorescence spectrum λmax, Pep, pH8 / maximum position of the fluorescence spectrum λmax, Pep-PC, pH3 / maximum position of the fluorescence spectrum λmax, Pep-PC, pH8: 5 μM peptide, excitation 280 nm, 25 °C; for maximum position of the fluorescence spectrum λmax, Pep-PC, pH3 / S, normalized area under the spectra, Pep-PC, pH3: with POPC liposomes pH 3; for maximum position of the fluorescence spectrum λmax, Pep-PC, pH3 / maximum position of the fluorescence spectrum λmax, Pep-PC, pH8: 1.25 mM lipids; for S, normalized area under the spectra, Pep-PC, pH3 / S, normalized area under the spectra, Pep-PC, pH8: normalized on area for peptide at pH 8 in absence of POPC; for maximum position of the fluorescence spectrum λmax, Pep-PC, pH8 / S, normalized area under the spectra, Pep-PC, pH8: with POPC liposomes pH 8
Method: as §1
Freshly prepared peptides and POPC vesicles were mixed to have 5 μM of a peptide and 1.25 mM of lipids in the final solution. Steady-state fluorescence measurements were carried out on a PC1 spectrofluorometer (ISS, Inc.) under temperature control at 25 °C. Tryptophan fluorescence was excited at 280 nm (there is no Phe or Tyr in the peptides) and recorded with the excitation and emission slits set at 1 nm. The polarizers in the excitation and emission paths were set at the “magic” angle (54.7° from the vertical orientation) and vertically (0°), respectively. Steady state CD measurements were carried out in MOS 450 spectropolarimeter (Bio-Logic, Inc.) with the same concentrations of peptide and lipids used in fluorescence measurements.

[3] = Dual quenching assay (acrylamide / 10-DN); type: physicochemical; settings: 7 μM peptide, 2.1 mM POPC; for percentage of fluorescence quenching, Pep-PC+AC pH3 / percentage of fluorescence quenching, Pep-PC+AC pH8: 235 mM acrylamide; for percentage of fluorescence quenching, Pep-PC+AC pH3 / percentage of fluorescence quenching, Pep-PC+10-DN pH3: pH 3; for percentage of fluorescence quenching, Pep-PC+AC pH8 / percentage of fluorescence quenching, Pep-PC+10-DN pH8: pH 8; for percentage of fluorescence quenching, Pep-PC+10-DN pH3 / percentage of fluorescence quenching, Pep-PC+10-DN pH8: 10% of lipids replaced by 10-DN
Source text: To establish localization of the peptides within a lipid bilayer of membrane, dual quenching assay[28] was employed (Fig. 3 and Table S3). Effective quenching of fluorescence by acrylamide would occur only for tryptophan residues exposed to polar parts of the outer or inner leaflets of the bilayer. At the same time, tryptophan residues located in the middle of a membrane would be effectively quenched by 10-DN. The result of the dual quenching assay allows establishing if tryptophan residues were located in the middle of a membrane or close to the polar headgroups of the bilayer. […] Therefore, we also performed Förster resonance energy transfer (FRET) assay[29] (Fig. 4). First, symmetrically-labelled by NBD dye, POPC liposomes were prepared. Then, membrane-impermeable dithionite was used to chemically modify exposed NBD, which led to the quenching of NBD fluorescence. Thus, NBD dyes located at the outer leaflet of the bilayer were deactivated and excess of dithionite was removed by gel filtration. As a result, asymmetrically-labelled liposomes with active NBD at the inner leaflet were obtained. FRET was monitored from tryptophan residues of the peptides to NBD. Energy transfer might occur only when both fluorophores are in proximity to each other (within 5–15 Å). Thus, when tryptophan residues located at the outer leaflet of the bilayer no significant energy transfer to NBD at the inner leaflet would occur (the distance is about 50–60 Å). […] All other peptides were located at the outer leaflet of the bilayer at pH 8. Drop of pH promoted partitioning of all cyclic peptides into bilayer, which highest FRET for the c[E4W5C] at pH 3.
POPC liposomes without and with 10% of the lipids replaced by 10-doxylnonadecane (10-DN) (Avanti Polar Lipids) were prepared in 10 mM citrate-phosphate buffer pH 8.0. Peptides and POPC liposomes were mixed to generate final concentrations of 7 μM peptide and 2.1 mM POPC without and with 10-DN. […] Quencher, acrylamide (Sigma-Aldrich), was added to the samples of POPC liposomes containing no 10-DN, to have final concentration of 235 mM acrylamide. Concentration of peptides in all samples was kept constant. To observe quenching of tryptophan fluorescence by 10-DN or acrylamide, the tryptophan fluorescence was recorded as described above. The appropriate POPC blanks were measured and subtracted from the measured spectra before analysis. The percentage of quenching was calculated.

HeLa cells = settings: concentrations used in this study, treatment of 2-4 hours; cited from earlier work
Method: Symmetric, c[(WE)4WC], and asymmetric, c[E4W5C], cyclic peptides were evaluated for their ability to move polar cargo across the membrane. The experiments on live cells were performed at physiologically relevant pHs, such as pH 7.4 (extracellular pH of normal cells) and pH 6.0 (extracellular pH in the vicinity of cancer cells[12]). As a polar cargo, we used amanitin, which is a cell-impermeable cyclic p ...

Row | Compound | apparent pK (pKa) of peptide's partitioning into the bilayer [1] | maximum position of the fluorescence spectrum λmax, Pep, pH8 [2] | maximum position of the fluorescence spectrum λmax, Pep-PC, pH3 [2] | S, normalized area under the spectra, Pep-PC, pH3 [2] | maximum position of the fluorescence spectrum λmax, Pep-PC, pH8 [2] | S, normalized area under the spectra, Pep-PC, pH8 [2] | percentage of fluorescence quenching, Pep-PC+AC pH3 [3] | percentage of fluorescence quenching, Pep-PC+AC pH8 [3] | percentage of fluorescence quenching, Pep-PC+10-DN pH3 [3] | percentage of fluorescence quenching, Pep-PC+10-DN pH8 [3] | pH-dependent interaction with / partitioning into the lipid bilayer of membrane ([2]; fluorescence and CD, POPC liposomes, pH 8 and pH 3) | cell death by amanitin alone (HeLa cells)
1 | CC(C)C[C@@H]1NC(=O)[C@H](CS)NC(=O)[C@H](Cc2c[nH]c3ccccc23)NC(=O)[C@H](CCC(=O)O)NC(=O)[C@H](CC(C)C)NC(=O)[C@H](CCC(=O)O)NC(=O)[C@H](CC(C)C)NC(=O)[C@H](CCC(=O)O)NC(=O)[C@H](CC(C)C)NC(=O)[C@H](CCC(=O)O)NC1=O [c[(LE)4WC]] (cyclo(CLELELELEW)) | 4.7 | 348.7±0.3 nm | 339.6±1.2 nm | 1.1±0.1 | 348.2±0.6 nm | 1.1±0.0 | 59% | 96% | 17% | 0% |  | 
2 | O=C(O)CC[C@@H]1NC(=O)[C@H](Cc2c[nH]c3ccccc23)NC(=O)[C@H](CS)NC(=O)[C@H](Cc2c[nH]c3ccccc23)NC(=O)[C@H](CCC(=O)O)NC(=O)[C@H](Cc2c[nH]c3ccccc23)NC(=O)[C@H](CCC(=O)O)NC(=O)[C@H](Cc2c[nH]c3ccccc23)NC1=O [c[(WE)3WC]] (cyclo(CWEWEWEW)) | 6.1 | 351.0±0.2 nm | 341.7±0.2 nm | 1.7±0.3 | 349.1±0.7 nm | 0.9±0.1 | 63% | 83% | 47% | 6% |  | 
3 | O=C(O)CC[C@@H]1NC(=O)[C@H](Cc2c[nH]c3ccccc23)NC(=O)[C@H](CS)NC(=O)[C@H](Cc2c[nH]c3ccccc23)NC(=O)[C@H](CCC(=O)O)NC(=O)[C@H](Cc2c[nH]c3ccccc23)NC(=O)[C@H](CCC(=O)O)NC(=O)[C@H](Cc2c[nH]c3ccccc23)NC(=O)[C@H](CCC(=O)O)NC(=O)[C@H](Cc2c[nH]c3ccccc23)NC1=O [c[(WE)4WC]] (cyclo(CWEWEWEWEW)) | 6.4 | 350.5±0.2 nm | 341.1±0.9 nm | 1.6±0.2 | 347.5±1.2 nm | 1.1±0.1 | 50% | 82% | 40% | 11% |  | 
4 | O=C(O)CC[C@@H]1NC(=O)[C@H](Cc2c[nH]c3ccccc23)NC(=O)[C@H](CS)NC(=O)[C@H](Cc2c[nH]c3ccccc23)NC(=O)[C@H](CCC(=O)O)NC(=O)[C@H](Cc2c[nH]c3ccccc23)NC(=O)[C@H](CCC(=O)O)NC(=O)[C@H](Cc2c[nH]c3ccccc23)NC(=O)[C@H](CCC(=O)O)NC(=O)[C@H](Cc2c[nH]c3ccccc23)NC(=O)[C@H](CCC(=O)O)NC(=O)[C@H](Cc2c[nH]c3ccccc23)NC1=O [c[(WE)5WC]] (cyclo(CWEWEWEWEWEW)) | 6.3 | 350.3±0.2 nm | 341.2±0.4 nm | 2.1±0.3 | 346.7±1.2 nm | 1.5±0.3 | 68% | 78% | 40% | 13% |  | 
5 | N=C(N)NCCC[C@@H]1NC(=O)[C@H](CS)NC(=O)[C@H](Cc2c[nH]c3ccccc23)NC(=O)[C@H](Cc2c[nH]c3ccccc23)NC(=O)[C@H](Cc2c[nH]c3ccccc23)NC(=O)[C@H](Cc2c[nH]c3ccccc23)NC(=O)[C@H](Cc2c[nH]c3ccccc23)NC(=O)[C@H](CCCNC(=N)N)NC(=O)[C@H](CCCNC(=N)N)NC(=O)[C@H](CCCNC(=N)N)NC1=O [c[R4W5C]] |  |  |  |  |  |  |  |  |  |  | does not exhibit pH-dependent changes | 
6 | CWEWEWEWEW [l(CW(EW)4)] | 5.7 |  |  |  |  |  |  |  |  |  |  | 
7 | alpha-amanitin |  |  |  |  |  |  |  |  |  |  |  | does not induce cell death
